# Laboratory results reported in patent publication US20090192135A1, “Human Niemann Pick C1-Like 1 Gene (NPC1L1) Polymorphisms and Methods of Use Thereof” (SCHERING CORPORATION, priority 2005, published 2009).
# Target: T1, NPC1L1 (Homo sapiens, UniProt Q9UHC9)
# T1 construct: from tissue; host or cells: small intestine of hypercholesterolemic patients (in vivo, clinical trial)
# T1 sequence (Q9UHC9 22-1332 isoform Q9UHC9-2 limits assumed): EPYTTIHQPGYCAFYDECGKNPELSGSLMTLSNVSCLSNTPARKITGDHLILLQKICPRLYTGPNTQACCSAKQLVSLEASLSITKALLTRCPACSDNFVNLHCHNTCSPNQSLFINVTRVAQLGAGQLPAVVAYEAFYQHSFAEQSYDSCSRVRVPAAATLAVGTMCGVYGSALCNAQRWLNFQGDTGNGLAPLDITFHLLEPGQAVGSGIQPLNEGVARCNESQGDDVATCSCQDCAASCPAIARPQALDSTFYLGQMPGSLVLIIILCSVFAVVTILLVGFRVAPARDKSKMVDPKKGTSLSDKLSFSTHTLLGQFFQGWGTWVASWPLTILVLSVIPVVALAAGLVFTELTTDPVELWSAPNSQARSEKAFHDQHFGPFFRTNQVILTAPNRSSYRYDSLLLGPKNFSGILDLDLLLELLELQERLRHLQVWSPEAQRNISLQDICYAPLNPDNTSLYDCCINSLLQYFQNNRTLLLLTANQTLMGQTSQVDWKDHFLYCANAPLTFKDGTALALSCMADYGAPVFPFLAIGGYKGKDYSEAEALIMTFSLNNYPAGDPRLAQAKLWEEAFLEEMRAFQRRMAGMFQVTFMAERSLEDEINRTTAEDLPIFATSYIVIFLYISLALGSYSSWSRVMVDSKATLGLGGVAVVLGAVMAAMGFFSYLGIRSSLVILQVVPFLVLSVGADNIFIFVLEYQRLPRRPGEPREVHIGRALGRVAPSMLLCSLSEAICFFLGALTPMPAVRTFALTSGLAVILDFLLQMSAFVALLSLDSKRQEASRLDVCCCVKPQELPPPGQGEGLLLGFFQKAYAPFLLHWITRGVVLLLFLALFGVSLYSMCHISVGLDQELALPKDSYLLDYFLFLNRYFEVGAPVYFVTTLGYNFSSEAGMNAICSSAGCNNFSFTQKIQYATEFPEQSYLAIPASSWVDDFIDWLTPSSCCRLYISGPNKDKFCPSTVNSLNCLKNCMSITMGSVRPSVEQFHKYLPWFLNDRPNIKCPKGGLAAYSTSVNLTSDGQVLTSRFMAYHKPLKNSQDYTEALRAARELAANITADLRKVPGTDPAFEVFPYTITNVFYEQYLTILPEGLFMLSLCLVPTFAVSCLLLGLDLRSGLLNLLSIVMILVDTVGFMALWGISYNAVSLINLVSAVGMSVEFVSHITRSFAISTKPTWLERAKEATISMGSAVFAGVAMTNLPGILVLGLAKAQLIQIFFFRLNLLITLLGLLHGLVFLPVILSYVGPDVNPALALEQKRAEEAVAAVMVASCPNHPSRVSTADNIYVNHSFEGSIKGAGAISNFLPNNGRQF
# Experiment: EASE trial: LDL-C response to six weeks of ezetimibe 10 mg/day added to stable statin therapy, analysed by NPC1L1 genotype/haplotype
# Assay type: in vivo
# Settings: for Least-Squares (adjusted) Mean (n,/Stderr), percent change in LDL-C: Extreme responders N = 239; for Odds Ratio, extreme responder association with SNP: g.-18C > A; for Adjusted Least Squares Mean, LDL-C response: extreme responder data set
# Method: Genotyping assays were developed for a number of novel and known common variants with minor allele frequencies greater than 4% that were identified in Example 1. Genetic association analysis was performed with these SNPs in a clinical trial cohort (EASE), described below, to assess whether DNA sequence variants in NPC1L1 are associated with changes in the levels of a variety of plasma cholesterol components in hypercholesterolemia patients in response to pharmacotherapy with ezetimibe and statins as compared to patients treated with a statin and placebo.
# To study whether variations in NPC1L1 were associated with response to ezetimibe added to statin therapy, a study population was derived from the Ezetimibe Add-On to Statin for Effectiveness (EASE) Trial (Pearson et al., (2005) Mayo Clinic Proceedings, In Press). The EASE trial was a community-based, randomized, double-blind, placebo controlled study to evaluate the effects of six weeks of ezetimibe, 10 mg/day, added on to a stable regimen of statin therapy, on lipid biomarkers in hypercholesterolemic patients whose LDL-C levels exceeded the National Cholesterol Education Program (NCEP) Adult Treatment Panel (ATP) m guidelines for their coronary heart disease (CHD) risk category. At enrollment, patients taking a stable dose of statin (any dose, any brand) and following a NCEP Step 1 diet or similar cholesterol-lowering diet for at least six weeks prior to entry into the study were randomized to either the ezetimibe (n=2020, 2009 received the treatment) or placebo (n=1010, 1009 received the treatment) arm. From the ezetimibe group, 1208 patients provided consent for genomic analysis and were included in this study. A series of clinical measures corresponding to various cardiovascular risk factors were measured from samples obtained from all trial participants and are summarized by Pearson et al., supra.
# Twenty one SNPs from Table 4 (Example 1) were converted to valid genotyping assays, thirteen of which had allele frequencies greater than 2% in all EASE sub-populations. TaqMan Allelic Discrimination assays (Livak, (1999) Genet. Anal. 14:143-49) were performed using Primer Express software and the Assay-by-Design service offered by Applied Biosystems (Foster City, Calif.). […] All probe/primer sets were designed to function using universal reaction and cycling conditions.
# The twenty one selected SNPs were genotyped in 1,208 individuals participating in the ezetimibe+statin treatment arm of the EASE trial. A series of clinical measures corresponding to various cardiovascular risk factors were taken on all trial participants (Tables 4a-d). Thirteen selected SNPs genotyped in the EASE cohort were confirmed as having common allele frequencies in this cohort, i.e., an allele frequency of greater than 2% in all EASE sub-populations. […] This could reflect the increased power in the larger EASE cohort to make such detections (see Table 5).
# The mean (SD) for total plasma cholesterol, HDL cholesterol (HDL-C), and LDL cholesterol (LDL-C) was 211.0 (34.9), 48.6 (11.5), and 129.1 (30.0) mg/dL, respectively (Pearson et al., supra). […] The distribution of these measurements was similar in the subjects enrolled in this genetic study (Pearson et al., supra). […] No significant associations were found between these response predictive variables and any of the tagging SNPs.
# Genetic association analysis was carried out in the EASE cohort with LDL-C response to ezetimibe treatment considered as the primary outcome variable. Individual SNPs, haplotypes, and haplotype combinations were the principal explanatory variables used in the analyses. General linear models were used to estimate the effects of genotypes, haplotypes, and diplotypes on the LDL-C response phenotype. Baseline LDL-C levels, sex, age, and race were investigated to determine if they gave rise to significant effects. Baseline LDL-C levels associated with significant effects in all models and were therefore included in all analyses. […]
smiles,measurement,setting,value
"O=C1[C@H](CC[C@H](O)c2ccc(F)cc2)[C@@H](c2ccc(O)cc2)N1c1ccc(F)cc1 [ezetimibe, 1-(4-fluorophenyl)-3(R)-[3-(4-fluorophenyl)-3(S)-hydroxypropyl]-4(S)-(4-hydroxyphenyl)-2-azetidinone]","Least-Squares (adjusted) Mean (n,/Stderr), percent change in LDL-C",g.1679C > G C/C,C/C: −17.49 (143/2.71) %
same,"Least-Squares (adjusted) Mean (n,/Stderr), percent change in LDL-C",g.1679C > G C/G,C/G: −25.16 (85/3.51) %
same,"Least-Squares (adjusted) Mean (n,/Stderr), percent change in LDL-C",g.1679C > G G/G,G/G: −40.93 (11/9.76) %
same,"Odds Ratio, extreme responder association with SNP","baseline LDL-C as covariate table, extreme responders N = 239, CI (1.59, 5.44)",Odds Ratio = 2.94-
same,"Least-Squares (adjusted) Mean, percent change in LDL-C","baseline LDL-C as covariate, extreme responders N = 239, g.-18C > A C/C",C/C: −17.8%
same,"Least-Squares (adjusted Mean), percent change from baseline LDL-C","baseline LDL-C as covariate, g.-18C > A A/A",−26.5%
same,"Least-Squares (adjusted Mean), percent change from baseline LDL-C","baseline LDL-C as covariate, g.-18C > A C/A",−27.9%
same,"Least-Squares (adjusted Mean), percent change from baseline LDL-C","baseline LDL-C as covariate, g.-18C > A C/C",−24.2%
same,"Least-Squares (adjusted Mean), percent change from baseline LDL-C","baseline LDL-C as covariate, g.-133A > G A/A",−25.9%
same,"Least-Squares (adjusted Mean), percent change from baseline LDL-C","baseline LDL-C as covariate, g.-133A > G A/G",−24.8%
same,"Least-Squares (adjusted Mean), percent change from baseline LDL-C","baseline LDL-C as covariate, g.-133A > G G/G",−21.9%
same,"Least-Squares (adjusted Mean), percent change from baseline LDL-C","baseline LDL-C as covariate, g.1679C > G C/C",−24.5%
same,"Least-Squares (adjusted Mean), percent change from baseline LDL-C","baseline LDL-C as covariate, g.1679C > G C/G",−26%
same,"Least-Squares (adjusted Mean), percent change from baseline LDL-C","baseline LDL-C as covariate, g.1679C > G G/G",−27.9%
same,"Least-Squares (adjusted Mean), percent change from baseline LDL-C","baseline LDL-C as covariate, g.19224G > A A/A",−28.6%
same,"Least-Squares (adjusted Mean), percent change from baseline LDL-C","baseline LDL-C as covariate, g.19224G > A G/A",−25.8%
same,"Least-Squares (adjusted Mean), percent change from baseline LDL-C","baseline LDL-C as covariate, g.19224G > A G/G",−25%
same,"Least-Squares (adjusted Mean), percent change from baseline LDL-C","baseline LDL-C as covariate, g.19259T > C C/C",−26.2%
same,"Least-Squares (adjusted Mean), percent change from baseline LDL-C","baseline LDL-C as covariate, g.19259T > C T/C",−25.2%
same,"Least-Squares (adjusted Mean), percent change from baseline LDL-C","baseline LDL-C as covariate, g.19259T > C T/T",−25%
same,"Least-Squares (adjusted Mean), percent change from baseline LDL-C","baseline LDL-C as covariate, g.28650A > G A/A",−24.3%
same,"Least-Squares (adjusted Mean), percent change from baseline LDL-C","baseline LDL-C as covariate, g.28650A > G A/G",−26.6%
same,"Least-Squares (adjusted Mean), percent change from baseline LDL-C","baseline LDL-C as covariate, g.28650A > G G/G",−28%
same,additional decrease in absolute LDL-C levels,corresponding to a 15% relative increase in LDL-C reductions,~5 mg/dL
same,"Adjusted Least Squares Mean, LDL-C response",diplotype A-A-C / A-C-C,−38.20%
same,"Adjusted Least Squares Mean, LDL-C response",diplotype A-A-G / A-C-C,−34.80%
same,"Adjusted Least Squares Mean, LDL-C response",diplotype A-A-G / A-C-G,−40.29%
same,"Adjusted Least Squares Mean, LDL-C response",diplotype A-A-G / G-C-C,−29.06%
same,"Adjusted Least Squares Mean, LDL-C response",diplotype A-C-C / A-C-C,−21.78%
same,"Adjusted Least Squares Mean, LDL-C response",diplotype A-C-C / A-C-G,−4.60%
same,"Adjusted Least Squares Mean, LDL-C response",diplotype A-C-C / G-C-C,−14.60%
same,"Adjusted Least Squares Mean, LDL-C response",diplotype A-C-G / A-C-G,−41.46%
same,"Adjusted Least Squares Mean, LDL-C response",diplotype A-C-G / G-C-C,−24.20%
same,"Adjusted Least Squares Mean, LDL-C response",diplotype G-C-C / G-C-C,3.93%
same,"Adjusted Least Squares Mean, LDL-C response",diplotype G-C-C / G-C-G,−66.96%
same,"Adjusted Least Squares Mean (stderr), LDL-C response","extreme responders, 3-SNP haplotype A-A-G, 0 copies (count 181)",−17.32 (2.38) %
same,"Adjusted Least Squares Mean (stderr), LDL-C response","extreme responders, 3-SNP haplotype A-A-G, 1 copy (count 58)",−33.69 (4.21) %
same,"Adjusted Least Squares Mean (stderr), LDL-C response","extreme responders, 3-SNP haplotype G-C-C, 0 copies (count 139)",−24.51 (2.75) %
same,"Adjusted Least Squares Mean (stderr), LDL-C response","extreme responders, 3-SNP haplotype G-C-C, 1 copy (count 92)",−18.62 (3.38) %
same,"Adjusted Least Squares Mean (stderr), LDL-C response","extreme responders, 3-SNP haplotype G-C-C, 2 copies (count 8)",3.93 (11.45) %
same,mean LDL-C percent response,"extreme responders, g.−18C>A heterozygotes",33.98%
same,increase in efficacy / increased reduction in LDL-C,"extreme responders, g.−18C>A heterozygotes vs homozygous common allele",100%
same,mean LDL-C percent response,"extreme responders, homozygous for the common allele of g.−18C>A (176/239)",16.8%
same,"Odds Ratio, extreme responder association with SNP","extreme responders N = 239, 95% CI 1.59, 5.44",Odds ratio** = 2.94-
same,increased LDL-C response / greater reduction in LDL-C,"g.−18C>A minor allele carriers compared to homozygous major allele, EASE cohort",15%
